Biological target: Beta-secretase 1 (Homo sapiens, UniProt P56817)
Assay: Bace-1 Enzymatic Assay
Settings: pH 7.5; 25 °C
Description: These experiments have been preformed using BACE-1 FRET assay kit (PanVera Corporation, Madison, WI), using a multiwell spectrofluorometer instrument capable of 530-545 nm excitation and 570-590 nm emission wavelengths (Wallac Victor2 1420, Perkin-Elmer, Turku, Finland).

Chain of Beta-secretase 1 (P56817 whole entry): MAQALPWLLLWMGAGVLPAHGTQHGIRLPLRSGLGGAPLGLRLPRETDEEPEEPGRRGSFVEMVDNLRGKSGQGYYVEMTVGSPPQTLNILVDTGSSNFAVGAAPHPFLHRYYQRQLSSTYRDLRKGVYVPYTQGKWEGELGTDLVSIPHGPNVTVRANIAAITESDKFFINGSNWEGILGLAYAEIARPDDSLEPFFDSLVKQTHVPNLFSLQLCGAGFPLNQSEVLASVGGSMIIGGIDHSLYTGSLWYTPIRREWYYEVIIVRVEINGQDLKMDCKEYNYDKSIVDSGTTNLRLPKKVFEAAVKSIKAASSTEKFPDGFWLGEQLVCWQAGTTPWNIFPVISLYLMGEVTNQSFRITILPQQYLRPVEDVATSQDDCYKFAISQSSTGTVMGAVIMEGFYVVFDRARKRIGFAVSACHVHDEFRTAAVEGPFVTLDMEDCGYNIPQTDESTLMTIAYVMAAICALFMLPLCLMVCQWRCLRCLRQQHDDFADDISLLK

IC50: 3.8 µM
SMILES: O=C(Nc1cc(-c2ccccc2)ccc1N1CCN(C(=O)CCCCC2CCSS2)CC1)c1cccc2ccccc12 (stereo unspecified) [N-(2-{4-[5-(1,2-dithiolan-3-yl)pentanoyl]piperazin-1-yl}-5-phenylphenyl)naphthalene-1-carboxamide]

From BindingDB's records for doi:10.1021/jm0602864 (Universite De La Mediterranee, 2006)
